Test results published in patent publication US10287328B2, “Treatment of diabetes, toll-like receptor 4 modulators and methods for using the same” (KeMyth Biotech Co., Ltd., priority 2016, dated 2019).

How the values were obtained:
HUVECs [1] = assay: Cell apoptosis, TUNEL assay in HUVECs; assay type: cell-based, human; conditions: compared to control cells
Method: Cell apoptosis was detected by using commercial terminal deoxynucleotidyl transferase-dUTP nick end labeling (TUNEL) and caspase-3 activity kits, i.e., Apo-BrdU in Situ DNA Fragmentation Assay Kit (BioVision) and NucView™ 488 Caspase-3 Enzyme Substrate (Biotium). In brief, after incubation with M199 media in the presence or absence of […] various PLY peptides, at 37° C., 5% CO2 for 1 hour, HUVECs were washed with PBS and fixed with fixation buffer on ice for 20 min. Cells were then soaked in 70% alcohol for 1 hr. After 2 times of wash by washing buffer, cells were incubated in DNA labeling solution for 60 min at 37° C. Cells were then treated with rinse buffer and incubated with antibody buffer for 30 min at room temperature. The cell nuclei were stained with propidium iodide for 30 min. Samples were observed by fluorescent microscopeand photographed charge-coupled device (CCD) camera.

[2] = test system: ERK1/2 and NFκB-p65 subunit phosphorylation; assay: Western blot of LPS-induced ERK1/2 and NFκB-p65 phosphorylation in HUVECs; assay type: cell-based, human; conditions: LPS 1 μg/mL plus C70PLY4 100, 300 and 500 nM, 24 h
Method: Cells were kept as the control, treated with LPS (1 μg/mL), or co-treated with LPS (1 μg/mL) and C70PLY4 (100, 300, and 500 nM) for 24 h and the phosphorylation of ERK1/2 and NFκB-p65 subunit were determined by Western blot. Cells were collected by scraping and lysed with RIPA buffer containing 1% NP-40, 0.5% sodium deoxycholate, 0.1% SDS, and a protease inhibitor mixture (PMSF, aprotinin, and sodium orthovanadate). The total cell lysate (50 μg of protein) was separated by SDS-polyacrylamide gel electrophoresis (PAGE) (10% running, 4% stacking) and transferred onto a polyvinylidene fluoride membrane (Immobilon P, 0.45-μm pore size). The membrane was then incubated with the designated antibodies. Immunodetection was performed by using the Western-Light chemiluminescent detection system (Applied Biosystems, Foster City, Calif.).
The present study determined if C70PLY4 inhibits LPS-induced signaling, including protein ERK1/2 and NFκB-p65 subunit, in the human umbilical vein endothelial cells (HUVECs) by using western blot assay (FIG. 14, panel A). The cells were kept as control, treated with LPS (1 μg/mL) only for 24 h, or co-treated with LPS (1 μg/mL) and C70PLY4 (100, 300, and 500 nM) for 24 h and the protein phosphorylation of ERK1/2 and NFκB-p65 subunit were examined.

[3] = Body weight in C57BL/KsJ-db/db diabetic mice; assay type: in vivo; conditions: 2 mg/kg/3 days i.p. for 30 days, compared with control group, after week 2
Method: Male C57BL/KsJ-db/db mice (diabetic deficiency knockout mice) at 5 weeks of age (23 g) were fed a pelletized commercial chow diet for acclimation from the arrival for 2 weeks. […]. They were given free access to food and distilled water, and the food consumption and body weight gain were measured daily and weekly, respectively. […]; and (2) group 2 served as diabetic mice administered C70PLY4 (2 mg/kg/3 days) in aqueous suspension i.p. for 30 days (C70PLY4). […] The blood was centrifuged at 1000 g for 15 min at 4° C., and plasma and erythrocyte were separated. The livers and adipose tissues were removed, washed, weighted, and frozen at −70° C. until analyzed.

HUVECs [4] = assay type: cell-based, human
Method: Cell viability was detected by a methanethiosulfonate (MTS) assay. In brief, 2×10^4 HUVECs were seeded to a 48-well plates in 100 μl endothelial cell medium (ECM, ScienCell Research Laboratory, Cat. 1001, USA) per well and incubated for 24 hrs. The media was removed and the cells were then incubated with media having 2% fetal bovine serum (FBS), in the absence or presence of various peptides, such as PLY, PLY123, PLY4, C70PLY4 or N35PLY4, at a concentration of 1, 10 or 100 nM. After incubation for 18 hours, the media was removed and 20 μl MTS reagents (20%) were added to each well in the final volume of 100 μl and placed in incubator for 1 hours. The optical density was measured at 490 nm using a plate reader.

[5] = test system: sICAM-1, sVCAM-1, sE-selectin; assay: Serum sICAM-1, sVCAM-1 and sE-selectin (ELISA) in HFD-induced type 2 diabetic rats; assay type: in vivo, Sprague-Dawley rats; conditions: STZ-injected HFD-fed rats, compared to STZ+vehicle
Method: The Sprague-Dawley rats were allocated to two dietary regimens by feeding either normal or HFD ad libitum, for the initial period of 2 weeks. After 2 weeks of dietary manipulation, the group of rats fed HFD were injected intraperitoneally (i.p.) with a low dose of STZ (35 mg/kg b.w.), while the respective control rats were given vehicle citrate buffer (pH 4.5) in a dose volume of 1 mL/kg, i.p. Seven days after STZ injection, rats were screened for blood glucose levels. Overnight fasted (10-12 hours) animals were given glucose (3 g/kg b.w.) by gastric intubation. After 2 hours of oral administration, blood samples were taken from lateral tail vein, left to coagulate and centrifuged; then serum glucose concentration was measured. Rats having serum glucose ≥200 mg/dL after 2 hours of glucose intake were considered diabetic and selected for further pharmacological studies. The rats were allowed to continue to feed on their respective diets until the end of the study (16).
The experimental animals were divided into three groups, each group comprising six rats designated as follows: (1) group 1 served as control rats (non-DM control); (2) group 2 served as diabetic control rats (STZ+vehicle); and (3) group 3 served as diabetic treatment rats administered with C70PLY4 (2 mg/kg/3 days) in aqueous suspension i.p. for 30 days (STZ+C70PLY4). By the end of the experiment, animals were sacrificed and blood samples, muscle and liver were obtained.
The levels of insulin, sICAM-1, sVCAM-1, and E-selectin in serum were determined by using sandwich ELISA (R&D) according to manufacturer's protocols.

[6] = test system: neointima formation of aorta; assay: Neointima formation of aorta (HE stain) in STZ-treated HFD-fed rats; assay type: in vivo
Method: The ascending part of aorta were taken from mice, including control health mice and HFD induced diabetic mice, with and without treatment of C70PLY4, and kept in 10% formalin buffered for 24 h. The specimens were routinely embedded in paraffin blocks and cut in transversal sections (3 μm). The slides were stained with hematoxylin and eosin. The specimens were analyzed with light microscope.
The present study determined if C70PLY4 attenuates the status of atherosclerosis in HFD-fed rats.

With “QDLTAHFTTSIPLKGNVRNLSVKIRECTGLAWEWWRTVYEKTDLPLVRKRTISIWGTTLYPQVEDKVEND [C70PLY4]” as the sequence, how does the “apoptotic potential, TUNEL assay” value (HUVECs [1]) read?
The value was “no apoptotic potential”.

What about the “LPS-induced ERK1/2 phosphorylation” value [2] of the same sequence?
The value was “significantly inhibited”.

And the “LPS-induced NFκB-p65 subunit phosphorylation” value [2]?
Its value is “significantly inhibited”.

What about the body weight [3] of the same sequence?
Its body weight is “significantly decreases”.

And the “toxicity to HUVECs (FIG. 15)” value (HUVECs [4]; MTS assay, 1, 10 or 100 nM, statement for high concentration (100 nM))?
The value was “no toxic effects”.

What about the “toxic effects to HUVECs at 100 nM or below” value (HUVECs [4]; MTS assays, 100 nM or below, data not shown) of the same sequence?
Its value is “no toxic effects”.

What about the “serum sE-selectin level” value [5] of the same sequence?
Its value is “decreased”.

And the “serum sICAM-1 level” value [5]?
Its value is “decreased sICAM-1”.

What about the “serum sVCAM-1 level” value [5] of the same sequence?
Its value is “decreased”.

And the “neointima formation of aorta induced by STZ” value [6]?
Its value is “significantly attenuated the status of neointima formation”.
